Reference: PubChem BioAssay (NCI)
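1) Cells in 96-well plates. 2) Compound, 48 h, 5 concentrations. 3) Linear interpolation between surrounding doses. 4) Unreached endpoint = highest concentration. At the TGI there is no net growth.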

How the values were obtained:
Assay in all cases: NCI-60 cell line screen, 48 h
NCI-H23 lung = tested on: NCI-H23 lung
MOLT-4 leukemia = tested on: MOLT-4 leukemia
PC-3 prostate = tested on: PC-3 prostate
SN12C renal = tested on: SN12C renal
OVCAR-3 ovarian = tested on: OVCAR-3 ovarian
ACHN renal = tested on: ACHN renal
HCT-116 colon = tested on: HCT-116 colon
OVCAR-4 ovarian = tested on: OVCAR-4 ovarian
DU-145 prostate = tested on: DU-145 prostate
MCF7 breast = tested on: MCF7 breast
EKVX NSCLC = tested on: EKVX NSCLC
M14 melanoma = tested on: M14 melanoma
UACC-257 melanoma = tested on: UACC-257 melanoma
NCI-H226 lung = tested on: NCI-H226 lung
HS 578T breast = tested on: HS 578T breast
SF-539 CNS = tested on: SF-539 CNS
SK-MEL-2 melanoma = tested on: SK-MEL-2 melanoma
SNB-75 CNS = tested on: SNB-75 CNS
BT-549 breast = tested on: BT-549 breast
COLO 205 colon = tested on: COLO 205 colon
786-0 renal = tested on: 786-0 renal
MDA-MB-435 = tested on: MDA-MB-435
MALME-3M melanoma = tested on: MALME-3M melanoma
SK-MEL-28 melanoma = tested on: SK-MEL-28 melanoma
MDA-N = tested on: MDA-N
MDA-MB-231 breast = tested on: MDA-MB-231 breast
SF-295 CNS = tested on: SF-295 CNS
SF-268 CNS = tested on: SF-268 CNS
OVCAR-5 ovarian = tested on: OVCAR-5 ovarian
RPMI-8226 leukemia = tested on: RPMI-8226 leukemia
A549 NSCLC = tested on: A549 NSCLC
SNB-19 CNS = tested on: SNB-19 CNS
UO-31 renal = tested on: UO-31 renal
LOX IMVI melanoma = tested on: LOX IMVI melanoma
KM12 colon = tested on: KM12 colon
HT29 colon = tested on: HT29 colon
CCRF-CEM leukemia = tested on: CCRF-CEM leukemia
SW-620 colon = tested on: SW-620 colon
HL-60(TB) leukemia = tested on: HL-60(TB) leukemia
NCI-H522 lung = tested on: NCI-H522 lung
T-47D breast = tested on: T-47D breast
A498 renal = tested on: A498 renal
HOP-62 NSCLC = tested on: HOP-62 NSCLC
NCI-H460 lung = tested on: NCI-H460 lung
HCT-15 colon = tested on: HCT-15 colon
OVCAR-8 ovarian = tested on: OVCAR-8 ovarian
HCC-2998 colon = tested on: HCC-2998 colon
NCI/ADR-RES ovarian = tested on: NCI/ADR-RES ovarian
U251 CNS = tested on: U251 CNS
K-562 leukemia = tested on: K-562 leukemia
SR leukemia = tested on: SR leukemia
IGROV1 ovarian = tested on: IGROV1 ovarian
HOP-92 NSCLC = tested on: HOP-92 NSCLC
CAKI-1 renal = tested on: CAKI-1 renal
UACC-62 melanoma = tested on: UACC-62 melanoma
SK-OV-3 ovarian = tested on: SK-OV-3 ovarian
SK-MEL-5 melanoma = tested on: SK-MEL-5 melanoma
TK-10 renal = tested on: TK-10 renal
RXF 393 renal = tested on: RXF 393 renal

Q: For `CC(=O)Oc1ccc2cc(-c3ccccc3OC(C)=O)c(=O)oc2c1`, which TGI (NCI-H23 lung) is on record?
A: > 100 µM

Q: And the TGI (MOLT-4 leukemia)?
A: > 100 µM

Q: And the TGI (PC-3 prostate)?
A: > 100 µM

Q: What about the TGI (SN12C renal) of the same molecule?
A: > 100 µM

Q: And the TGI (OVCAR-3 ovarian)?
A: > 100 µM

Q: What about the TGI (ACHN renal) of the same molecule?
A: > 100 µM

Q: And the TGI (HCT-116 colon)?
A: > 100 µM

Q: What about the TGI (OVCAR-4 ovarian) of the same molecule?
A: > 100 µM

Q: And the TGI (DU-145 prostate)?
A: > 100 µM

Q: And the TGI (MCF7 breast)?
A: > 100 µM

Q: And the TGI (EKVX NSCLC)?
A: > 100 µM

Q: And the TGI (M14 melanoma)?
A: > 100 µM

Q: What about the TGI (UACC-257 melanoma) of the same molecule?
A: > 100 µM

Q: And the TGI (NCI-H226 lung)?
A: 70.7 µM

Q: What about the TGI (HS 578T breast) of the same molecule?
A: > 100 µM

Q: And the TGI (SF-539 CNS)?
A: > 100 µM

Q: What about the TGI (SK-MEL-2 melanoma) of the same molecule?
A: > 100 µM

Q: And the TGI (SNB-75 CNS)?
A: 34.4 µM

Q: And the TGI (BT-549 breast)?
A: > 100 µM

Q: What about the TGI (COLO 205 colon) of the same molecule?
A: > 100 µM

Q: And the TGI (786-0 renal)?
A: > 100 µM

Q: What about the TGI (MDA-MB-435) of the same molecule?
A: > 100 µM

Q: And the TGI (MALME-3M melanoma)?
A: > 100 µM

Q: And the TGI (SK-MEL-28 melanoma)?
A: > 100 µM

Q: And the TGI (MDA-N)?
A: > 100 µM

Q: What about the TGI (MDA-MB-231 breast) of the same molecule?
A: > 100 µM

Q: What about the TGI (SF-295 CNS) of the same molecule?
A: > 100 µM

Q: What about the TGI (SF-268 CNS) of the same molecule?
A: > 100 µM

Q: And the TGI (OVCAR-5 ovarian)?
A: > 100 µM

Q: And the TGI (RPMI-8226 leukemia)?
A: > 100 µM

Q: What about the TGI (A549 NSCLC) of the same molecule?
A: > 100 µM

Q: And the TGI (SNB-19 CNS)?
A: > 100 µM

Q: What about the TGI (UO-31 renal) of the same molecule?
A: 28.4 µM

Q: And the TGI (LOX IMVI melanoma)?
A: > 100 µM

Q: What about the TGI (KM12 colon) of the same molecule?
A: > 100 µM

Q: What about the TGI (HT29 colon) of the same molecule?
A: > 100 µM

Q: And the TGI (CCRF-CEM leukemia)?
A: 60.6 µM

Q: What about the TGI (SW-620 colon) of the same molecule?
A: > 100 µM

Q: And the TGI (HL-60(TB) leukemia)?
A: 24.4 µM

Q: And the TGI (NCI-H522 lung)?
A: 17.9 µM

Q: And the TGI (T-47D breast)?
A: 56.7 µM

Q: What about the TGI (A498 renal) of the same molecule?
A: > 100 µM

Q: What about the TGI (HOP-62 NSCLC) of the same molecule?
A: > 100 µM

Q: And the TGI (NCI-H460 lung)?
A: > 100 µM

Q: What about the TGI (HCT-15 colon) of the same molecule?
A: > 100 µM

Q: What about the TGI (OVCAR-8 ovarian) of the same molecule?
A: > 100 µM

Q: What about the TGI (HCC-2998 colon) of the same molecule?
A: > 100 µM

Q: What about the TGI (NCI/ADR-RES ovarian) of the same molecule?
A: > 100 µM

Q: What about the TGI (U251 CNS) of the same molecule?
A: > 100 µM

Q: And the TGI (K-562 leukemia)?
A: > 100 µM

Q: And the TGI (SR leukemia)?
A: > 100 µM

Q: Which results are given for `CC1=C(/C=C/Cl)CC(Cl)C(C)(Cl)C1` (configuration not stated)?
A: TGI (NCI-H23 lung): > 100 µM; TGI (MOLT-4 leukemia): > 100 µM; TGI (PC-3 prostate): > 100 µM; TGI (SN12C renal): > 100 µM; TGI (ACHN renal): > 100 µM; TGI (HCT-116 colon): > 100 µM; TGI (OVCAR-4 ovarian): > 100 µM; TGI (DU-145 prostate): > 100 µM; TGI (IGROV1 ovarian): > 100 µM; TGI (MCF7 breast): > 100 µM; TGI (HOP-92 NSCLC): > 100 µM; TGI (CAKI-1 renal): > 100 µM; TGI (EKVX NSCLC): > 100 µM; TGI (M14 melanoma): > 100 µM; TGI (UACC-257 melanoma): > 100 µM; TGI (NCI-H226 lung): > 100 µM; TGI (HS 578T breast): > 100 µM; TGI (SF-539 CNS): > 100 µM; TGI (SK-MEL-2 melanoma): > 100 µM; TGI (SNB-75 CNS): > 100 µM; TGI (BT-549 breast): > 100 µM; TGI (COLO 205 colon): > 100 µM; TGI (786-0 renal): > 100 µM; TGI (MDA-MB-435): > 100 µM; TGI (MALME-3M melanoma): > 100 µM; TGI (SK-MEL-28 melanoma): > 100 µM; TGI (MDA-N): > 100 µM; TGI (MDA-MB-231 breast): > 100 µM; TGI (UACC-62 melanoma): > 100 µM; TGI (SK-OV-3 ovarian): > 100 µM; TGI (SF-295 CNS): > 100 µM; TGI (SK-MEL-5 melanoma): > 100 µM; TGI (SF-268 CNS): > 100 µM; TGI (OVCAR-5 ovarian): > 100 µM; TGI (A549 NSCLC): > 100 µM; TGI (SNB-19 CNS): > 100 µM; TGI (UO-31 renal): > 100 µM; TGI (LOX IMVI melanoma): > 100 µM; TGI (KM12 colon): > 100 µM; TGI (HT29 colon): > 100 µM; TGI (CCRF-CEM leukemia): 74.2 µM; TGI (SW-620 colon): > 100 µM; TGI (HL-60(TB) leukemia): 60.5 µM; TGI (NCI-H522 lung): > 100 µM; TGI (T-47D breast): > 100 µM; TGI (A498 renal): > 100 µM; TGI (NCI-H460 lung): > 100 µM; TGI (HCT-15 colon): > 100 µM; TGI (TK-10 renal): > 100 µM; TGI (OVCAR-8 ovarian): > 100 µM; TGI (HCC-2998 colon): > 100 µM; TGI (NCI/ADR-RES ovarian): > 100 µM; TGI (U251 CNS): > 100 µM; TGI (K-562 leukemia): > 100 µM; TGI (RXF 393 renal): 71.3 µM; TGI (SR leukemia): > 100 µM
